The subject of one series is HeLa. As to the kind of experiment: Cytotoxicity against human HeLa cells incubated for 24 hrs by MTT assay. Format: toxicity, cell-based.
The test system of the next series is Escherichia coli. Briefly: Antibacterial activity against Escherichia coli DH5a incubated for 18 hrs by spectrophotometric based microdilution assay. In kind it is functional, organism-based.
Another series concerns KB 3-1. As to the kind of experiment: Cytotoxicity against human KB-3-1cells incubated for 24 hrs by MTT assay. In kind it is toxicity, cell-based. The conditions noted are these: kb 3-1, 24 h.

SMILES strings stand for the structures. Activity calls are given as the source filed them. The calls are words filed in the database; no cut-off is given here.

The source of these data is ChEMBL document CHEMBL5376008, “Total Synthesis, Revised Structure, and Biological Evaluation of Elgonene B and Analogues” (J Nat Prod, 2024).

`C=C([C@H]1CC=C(C)CC1)[C@@H](O)[C@H]1C[C@@H](C)C(=O)O1`: the Activity result in the series on HeLa and in the series with KB 3-1 was “Non-Toxic” each time. Also, in the series with Escherichia coli, the outcome was inactive.
In the case of `C=C([C@H]1CC=C(C)CC1)[C@H](O)[C@H]1C[C@@H](C)C(=O)O1`, the Activity entry with HeLa and in the series on KB 3-1 was “Non-Toxic” throughout.
As to `C=C([C@@H]1CC=C(C)CC1)[C@@H](O)[C@H]1C[C@@H](C)C(=O)O1`, the Activity result with HeLa and in the series on KB 3-1 was “Non-Toxic” in each case.
As for `C=C([C@@H]1CC=C(C)CC1)[C@H](O)[C@H]1C[C@@H](C)C(=O)O1`, the Activity result in the series with HeLa and in the series with KB 3-1 was “Non-Toxic” each time. Besides, the outcome in the series on Escherichia coli was inactive.
